The results in this text go back to patent US7960568B2, “Heterocyclyl-substituted sulfonamides for the treatment of cognitive or food ingestion related disorders” (Laboratorios Del Dr. Esteve, S.A., priority 2007, dated 2011).

SMILES strings stand for the structures. “And” between values parts separate entries of the source, which are not always exact repeats. Equal values may be shown once.

For this experiment, the target named is T1, 5HT6 human recombinant receptor (Homo sapiens, UniProt P50406).
T1 construct: purchased Receptor Biology; host or cells: HEK-293 cell membranes
T1 sequence (P50406 whole entry): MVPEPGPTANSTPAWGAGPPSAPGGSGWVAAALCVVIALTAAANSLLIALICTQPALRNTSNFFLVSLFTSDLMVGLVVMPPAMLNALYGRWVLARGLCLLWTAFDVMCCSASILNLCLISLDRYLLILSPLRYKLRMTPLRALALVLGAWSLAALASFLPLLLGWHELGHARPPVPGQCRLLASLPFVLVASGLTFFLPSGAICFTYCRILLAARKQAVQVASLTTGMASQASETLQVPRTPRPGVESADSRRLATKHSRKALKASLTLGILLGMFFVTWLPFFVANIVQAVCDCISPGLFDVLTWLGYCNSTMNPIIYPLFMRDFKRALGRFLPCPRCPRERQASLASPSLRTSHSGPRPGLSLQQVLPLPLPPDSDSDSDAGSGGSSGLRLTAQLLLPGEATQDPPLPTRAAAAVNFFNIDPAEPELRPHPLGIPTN
Kind of experiment: Binding with serotonin receptor 5HT6 ([3H]-LSD radioligand, HEK-293 cell membranes). The conditions noted are these: [3H]-LSD 2.7 nM, HEK-293 membranes; for inhibition at 0.01 µM: 10 nM compound; for inhibition at 0.01 µM / inhibition at 0.1 µM: 60 min, 37° C.; for inhibition at 0.1 µM: 100 nM compound; for Ki: non-linear regression EBDA/LIGAND. The method, then:
Biological Assays Binding with Serotonin Receptor 5HT6
Cell membranes of HEK-293 cells expressing the 5HT6 human recombinant receptor were supplied by Receptor Biology. In said membranes the receptor concentration is 2.18 pmol/mg protein and the protein concentration is 9.17 mg/ml. The experimental protocol follows the method of B. L. Roth et al. [B. L. Roth, S. C. Craigo, M. S. Choudhary, A. Uluer, F. J. Monsma, Y. Shen, H. Y. Meltzer, D. R. Sibley: Binding of Typical and Atypical Antipsychotic Agents to 5-Hydroxytryptamine-6 and Hydroxytriptamine-7 Receptors. The Journal of Pharmacology and Experimental Therapeutics, 1994, 268, 1403] with slight changes. The commercial membrane is diluted (1:40 dilution) with the binding buffer: 50 mM Tris-HCl, 10 mM MgCl2, 0.5 mM EDTA (pH 7.4). The radioligand used is [^3H]-LSD at a concentration of 2.7 nM with a final volume of 200 μl. incubation is initiated by adding 100 μl of membrane suspension, (≈22.9 μg membrane protein), and is prolonged for 60 minutes at a temperature of 37° C. The incubation is ended by fast filtration in a Brandel Cell Harvester through fiber glass filters made by Schleicher & Schuell GF 3362 pretreated with a solution of polyethylenimine at 0.5%. The filters are washed three times with three milliliters of buffer Tris-HCl 50 mM pH 7.4. The filters are transferred to flasks and 5 ml of Ecoscint H liquid scintillation cocktail are added to each flask. The flasks are allowed to reach equilibrium for several hours before counting with a Wallac Winspectral 1414 scintillation counter. Non-specific binding is determined in the presence of 100 μM of serotonin. Tests were made in triplicate. The inhibition constants (Ki, nM) were calculated by non-linear regression analysis using the program EBDA/LIGAND [Munson and Rodbard, Analytical Biochemistry, 1980, 107, 220].

On to `CCNCCc1c[nH]c2ccc(NS(=O)(=O)c3c(Cl)nc4sccn34)cc12` [Example 4, 6-Chloro-imidazo[2,1-b]thiazole-5-sulfonic acid [3-(2-ethylamino-ethyl)-1H-indol-5-yl]-amide], for which the inhibition at 0.01 µM came to 61.8%, the inhibition at 0.1 µM was 81.7% and the inhibitory constant (Ki) worked out at 6.4 ± 1 nM.

In the case of `CNCCc1c[nH]c2ccc(NS(=O)(=O)c3c(Cl)nc4sccn34)cc12` [Example 3, 6-Chloro-imidazo[2,1-b]thiazole-5-sulfonic acid [3-(2-methylamino-ethyl)-1H-indol-5-yl]-amide], the inhibition at 0.01 µM was 47.3%; the inhibition at 0.1 µM was found to be 71.8%; the Ki was 4.7 nM and 3.2 nM.

For the compound `Cc1c(S(=O)(=O)Nc2ccc3[nH]cc(CCN)c3c2)sc2ccc(Cl)cc12` [Example 5, 5-Chloro-3-methyl-benzo[b]thiophene-2-sulfonic acid [3-(2-amino-ethyl)-1H-indol-5-yl]-amide], the inhibition at 0.01 µM is 63.5%, the inhibition at 0.1 µM was determined as 85% and the inhibition constant Ki was determined as 11.7 nM.

Consider `NCCc1c[nH]c2ccc(NS(=O)(=O)c3c(Cl)nc4sccn34)cc12` [Example 6, 6-Chloro-imidazo[2,1-b]thiazole-5-sulfonic acid [3-(2-amino-ethyl)-1H-indol-5-yl]-amide], for which the inhibition at 0.01 µM is 75.7%, the inhibition at 0.1 µM amounted to 92.3% and the Ki is 3.6 ± 1.4 nM.

As for `CNCCc1c[nH]c2ccc(NS(=O)(=O)c3sc4ccc(Cl)cc4c3C)cc12` [Example 2, 5-Chloro-3-methyl-benzo[b]thiophene-2-sulfonic acid [3-(2-methylamino-ethyl)-1H-indol-5-yl]-amide], the inhibition at 0.01 µM is 62.5%, the inhibition at 0.1 µM turned out to be 80.3% and the Ki turned out to be 2 nM.

As for `CCNCCc1c[nH]c2ccc(NS(=O)(=O)c3sc4ccc(Cl)cc4c3C)cc12` [Example 1, 5-Chloro-3-methyl-benzo[b]thiophene-2-sulfonic acid [3-(2-ethylamino-ethyl)-1H-indol-5-yl]-amide], the inhibition at 0.01 µM was 82.7%, the inhibition at 0.1 µM was found to be 91.4% and the Ki is 0.67 nM.

A word on the inhibition: it is the relative decrease from the control value, in per cent. One may read the Ki as a measure of affinity in units of concentration, obtained from inhibition or displacement.
